In patent publication US20180064811A1, “PHARMACEUTICAL COMBINATIONS COMPRISING CD33 ANTIBODIES AND DE-METHYLATING AGENTS” (Boehringer Ingelheim International GmbH, priority 2013, published 2018):

Tested on: HL60 cells
Assay: ADCC (LDH release) of CD33 antibody CD33-1 with PBMC effector cells pre-treated with de-methylating agents
Type: cell-based, human
Conditions: for Relative Cytolysis (%): ADCC of CD33-1 on HL60 target cells, human PBMC effector cells pre-treated with 100 nM de-methylating agent for 3 to 6 days, E:T 25:1, relative to untreated PBMC (100), 3 independent assays; for impact on ADCC of mAb 33-1: effector cells (PBMC) treated with 100 nM for 3 to 6 days, compared with untreated effector cells
Procedure: The ability CD33 antibodies to mediate antibody-dependent cell-mediated cytotoxicity (ADCC) in the presence of effector cells pre-treated with demethylating agents is assessed using HL60 cells as target cells and human PBMCs as effector cells.
Preparation of target cells (HL-60 acute myeloid leukemia, DSMZ #ACC3)
An aliquot of the cell culture at a cell density between 1.5×10^6/m1 and 1.8×10^6/m1 and growing in the log-phase is centrifuged (200×g, i.e. 1000 rpm) for 10 min. Cells are washed once with washing medium (RPMI 1640 w/o L-glutamine) and pelleted (200×g, i.e. 1000 rpm; 10 min). Cell pellet is suspended in assay medium (1% BSA; AlbuMAX II (Gibco 11021-037)) and cell count is determined. Cell concentration is adjusted to 2×10^5/ml.
Approximately 100 ml whole blood drawn from healthy donors is used for the isolation of PBMC. 10 ml whole blood are diluted 1:3.6 with 26 ml HBSS (Gibco 14170-088; Paisley, Scotland) in a 50 ml tube. 18 ml diluted whole blood is layered on top of 12 ml Lymphoprep (Nycomed Pharma AS 1053980) in a 50 ml tube and centrifuged at 370×g (1400 rpm) for 35 min. The mononuclear cells from the interface are aspirated and washed first with HBSS (750×g, i.e. 1900 rpm; 10 min), then a second time with HBSS (300×g, i.e. 1200 rpm; 10 min) and finally with HBSS (160×g, i.e. 900 rpm; 10 min). The pelleted cells are gently suspended in culture medium/assay medium (10% heat-inactivated human AB serum in RPMI 1640 w/o L-glutamine) using a pipette and the cell count is determined in the cell counter. The PBMC concentration is adjusted to 1×10^7/ml.
The freshly isolated PBMC (5×10^5/m1) are pre-treated with de-methylating agents in culture medium (RPMI 1640 w/o L-glutamine supplemented with 10% human AB serum and decitabine or 5-azacytidine at a final concentration of 100 nM) in a tissue culture flask (75 cm^2) at 37° C. in CO2 incubator for 3 to 6 days. De-methylating agent treated PBMC are separated from cell debris on a Lymphoprep gradient. The purified de-methylating agent treated PBMC are suspended in culture medium/assay medium ata concentration of 1×10^7/ml.
For all tested cell lines an E:T ratio of 25:1 is used. The co-cultivation of effector cells with target cells in presence of test antibody is performed in quadruplicates in 96-well round-bottom microtiter plates (Costar #3799) in a final volume of 200 μl assay medium per well consisting of 10% human AB serum and 1% BSA in RPMI in 1:1 ratio. In each experimental run two plates are assayed in parallel. First effector cells (PBMC cells in 100 μl 10% human AB serum in RPMI per well) are plated, followed by target cells (in 50 μl 1% BSA in RPMI per well) and antibody solution (candidate antibody diluted in 50 μl 1% BSA in RPMI). As a control, effector cells are cultivated in assay medium alone (effector cell control) and target cells are cultivated either in assay medium alone (spontaneous lysis) or in assay medium supplemented with 1% Triton X-100 (maximal lysis). The co-culture is incubated at 37° C. in a humid CO^2 incubator for 3 to 4 hours.
At the end of the incubation cells are removed from the culture medium by centrifugation (200×g, i.e. 1000 rpm; 10 min) at room temperature. Cell free supernatants (100 μl/well) are transferred into corresponding wells of a 96-well flat-bottom plate (Costar #3595). To determine the LDH activity in these supernatants 100 μl reaction mixture (freshly mixed 250 μl catalyst with 11.25 ml dye solution) are added to each well and incubated 30 min at room temperature in the dark. Then the absorbance is measured as described below.
Cytotoxicity Detection Kit (LDH Roche #11 644 793 001) is used to determine ADCC activity. The assay is based on the measurement of LDH enzyme activity released from plasma membrane-damaged cells. LDH released into the culture supernatants reduces the tetrazolium salt from the kit to formazan. […]

Which “Relative Cytolysis (%)” value does the source give for Nc1ncn([C@@H]2O[C@H](CO)[C@@H](O)[C@H]2O)c(=O)n1 [5-Azacitidine, 4-amino-1-β-D-ribofuranosyl-1,3,5-triazin-2(1H)-one] here?
Its value is 107%.

What about the “Relative Cytolysis (%)” value (listed as 5-azacytidine) of the same compound?
Its value is 98%.

What about the “impact on ADCC of mAb 33-1” value of the same compound?
Its value is “did not significantly impact”.

How did the “Relative Cytolysis (%)” value turn out when Nc1ncn([C@H]2C[C@H](O)[C@@H](CO)O2)c(=O)n1 [Decitabine, 4-Amino-1-(2-deoxy-β-D-erythro-pentofuranosyl)-1,3,5-triazin-2(1H)-one] was run?
Its value is 98%.

What about the “Relative Cytolysis (%)” value (listed as decitabine) of the same compound?
The value was 107%.

And the “impact on ADCC of mAb 33-1” value?
Its value is “did not significantly impact”.
